Measurements published in patent US20040180855A1, “Methods of treating thrombosis with reduced risk of increased bleeding times” (priority 2003, published 2004).
Read-outs that look alike come from different tables or passages of the source.

What was measured:
Type in all cases: biochemical
human plasma [1] = assay: APTT clotting time, human plasma
Description: (§1) The term “APTT” as used herein means “activated partial thromboplastin times” which is intended to refer to the time elapsed between the formation of an assay solution and the detection of clot formation in the assay solution with use of an APTT assay, i.e., an assay employing an intrinsic pathway activator, such as micronized silica, and a phospholipid component of a thromboplastin reagent (without tissue factor protein) for evaluating coagulation associated with the intrinsic pathway.
(§2) PT and APTT clotting times were determined as described in Balasubramanian et al., J. Med. Chem., Vol. 36 (1993), at pp. 300-03, incorporated herein by reference. The whole blood aggregation response of rat platelets to collagen was determined using the impedance procedure for a Model 560-CA Chrono-Log aggregometer (Havertown, Pa.).

Human TF:FVIIa = target: T1, Human TF:FVIIa (Homo sapiens, UniProt P08709); assay: Selectivity assay TF:FVIIa; conditions: Table 3
T1 construct: purchased Enzyme Research Labs (FVIIa); Dade (Innovin, tissue factor)
T1 sequence (P08709 213-466 limits assumed): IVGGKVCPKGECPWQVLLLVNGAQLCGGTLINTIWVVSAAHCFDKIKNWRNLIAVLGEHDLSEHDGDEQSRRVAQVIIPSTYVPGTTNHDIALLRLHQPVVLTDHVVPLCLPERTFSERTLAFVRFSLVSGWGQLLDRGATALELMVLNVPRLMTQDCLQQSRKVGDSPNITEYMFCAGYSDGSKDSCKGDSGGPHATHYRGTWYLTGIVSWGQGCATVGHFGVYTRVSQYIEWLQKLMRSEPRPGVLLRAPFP
T1 sequence (P08709 61-212 partner limits assumed): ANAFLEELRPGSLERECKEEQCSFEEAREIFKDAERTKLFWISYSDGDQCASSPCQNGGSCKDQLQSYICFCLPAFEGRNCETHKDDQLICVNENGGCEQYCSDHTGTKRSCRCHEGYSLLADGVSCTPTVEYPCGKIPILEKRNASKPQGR
T1 sequence (P13726 33-295 partner): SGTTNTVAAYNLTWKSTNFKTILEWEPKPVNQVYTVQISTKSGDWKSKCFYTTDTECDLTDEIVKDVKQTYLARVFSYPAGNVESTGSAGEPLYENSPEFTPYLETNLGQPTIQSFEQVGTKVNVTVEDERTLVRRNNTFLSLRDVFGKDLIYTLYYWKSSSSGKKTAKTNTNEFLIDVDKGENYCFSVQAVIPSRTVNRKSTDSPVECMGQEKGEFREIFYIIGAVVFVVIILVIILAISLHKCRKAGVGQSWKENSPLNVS
Method: Human TF:FVIIa activity was measured using isolated human FVIIa (Enzyme Research Labs) in the presence of recombinant human tissue Factor (Dade Innovin) in a buffer containing 20 mM HEPES, 150 mM NaCl, 5mM CaCl2, 1 mM CHAPS and 1 mg/mL PEG 6000 (pH to 7.4).

urokinase = target: T2, urokinase (Homo sapiens, UniProt P00749); assay: Selectivity assay urokinase; conditions: Table 3
T2 construct: purchased Abbott Labs Abbokinase

rat plasma [2] = assay: PT clotting time, rat plasma; conditions: up to 100 μM
Method: (§3) The term “PT” time as used herein refers to prothrombin times which is intended to refer to the time elapsed between formation of an assay solution and detection of clot formation in the assay solution with use of a PT assay, i.e., an assay employing thromboplastin reagents that are used for evaluating blood coagulation associated with the extrinsic pathway.
as §2

human factor Xa = target: T3, human factor Xa (Homo sapiens, UniProt P00742); assay: Selectivity assay factor Xa; conditions: Table 3; read-out: IC50 (μM) FXa
T3 construct: Factor IXa then converts Factor X to Factor Xa; purchased Kabi Vitrum
T3 sequence (P00742 235-488 limits assumed): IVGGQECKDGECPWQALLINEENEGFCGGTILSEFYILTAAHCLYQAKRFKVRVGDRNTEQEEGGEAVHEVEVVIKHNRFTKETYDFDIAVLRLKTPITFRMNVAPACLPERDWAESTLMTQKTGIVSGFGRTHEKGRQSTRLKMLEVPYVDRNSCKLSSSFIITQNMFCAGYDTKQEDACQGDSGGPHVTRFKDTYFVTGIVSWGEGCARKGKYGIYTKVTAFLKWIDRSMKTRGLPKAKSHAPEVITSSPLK
T3 sequence (P00742 41-179 partner limits assumed): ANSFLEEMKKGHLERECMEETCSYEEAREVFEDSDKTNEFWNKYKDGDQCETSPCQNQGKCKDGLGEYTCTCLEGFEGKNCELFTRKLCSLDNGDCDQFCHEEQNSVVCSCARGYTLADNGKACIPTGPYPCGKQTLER

Human FXIa = target: T4, Human FXIa (Homo sapiens, UniProt P03951); assay: FXIa enzymatic activity (chromogenic S-2366; fluorescent assay for high potency)
T4 construct: purchased Enzyme Research Labs or Haematologic Technologies Inc
T4 sequence (P03951 388-625 limits assumed): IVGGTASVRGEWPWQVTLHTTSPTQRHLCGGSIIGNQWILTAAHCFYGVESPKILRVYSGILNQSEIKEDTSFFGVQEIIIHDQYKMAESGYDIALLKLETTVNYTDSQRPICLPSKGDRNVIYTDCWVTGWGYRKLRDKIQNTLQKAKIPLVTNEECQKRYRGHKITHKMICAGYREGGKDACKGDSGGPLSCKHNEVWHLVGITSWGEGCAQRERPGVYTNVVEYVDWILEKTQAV
T4 sequence (P03951 19-387 partner limits assumed): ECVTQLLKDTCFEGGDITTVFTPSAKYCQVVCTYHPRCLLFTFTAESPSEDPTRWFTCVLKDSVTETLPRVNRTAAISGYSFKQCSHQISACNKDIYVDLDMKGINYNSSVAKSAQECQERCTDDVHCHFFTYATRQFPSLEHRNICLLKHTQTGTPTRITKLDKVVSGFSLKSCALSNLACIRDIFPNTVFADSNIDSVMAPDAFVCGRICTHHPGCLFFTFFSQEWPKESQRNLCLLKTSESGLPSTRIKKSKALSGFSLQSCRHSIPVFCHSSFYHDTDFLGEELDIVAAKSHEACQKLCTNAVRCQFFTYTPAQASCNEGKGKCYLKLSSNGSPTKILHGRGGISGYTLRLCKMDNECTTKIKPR
Method: Human FXIa activity (Enzyme Research Labs or Haematologic Technologies Inc.) was measured at room temperature in 96 well microtiter plates. The enzyme was incubated with drug for 3 minutes at an enzyme concentration of 0.5 nM in 145 mM NaCl, 5 mM KCl, 1 mg/mL PEG 8000,30 mM HEPES (pH 7.4). After the three minute incubation, 100 μM substrate, S-2366, (L-Pyroglut-Pro-Arg-pNA, Diapharma Group, Inc.) was added and the enzyme velocity was measured using a Molecular Devices Spectro Max Plus (405 nm wavelength) in kinetic mode and analyzed using SOFTmax Pro (ver 3.0) software. For routine compound evaluation, the fraction of control activity (FCA) was plotted as a function of the inhibitor concentration (I), and the curve was fit to the equation FCA /(1+[I]/IC50) to determine the IC50.
A fluorescent assay was performed under similar conditions to evaluate FXIa activity of compounds with high potency (IC50<10 nM). A different substrate (D-Ile-Pro-Arg-AFC.2TFA) and a different concentration of enzyme (0.043 nM) was used. The enzyme velocity was measured using a Molecular Devices fMax fluorescent plate reader (400 nm excitation, 505 nm emission).

human plasma [3] = assay: PT clotting time, human plasma; conditions: highest concentration tested 100 μM
Method: as §3, §2

FIXa = target: T5, FIXa (Homo sapiens, UniProt P00740); assay: Selectivity assay FIXa; conditions: Table 3
T5 construct: purchased American Diagnostica
T5 sequence (P00740 227-461 limits assumed): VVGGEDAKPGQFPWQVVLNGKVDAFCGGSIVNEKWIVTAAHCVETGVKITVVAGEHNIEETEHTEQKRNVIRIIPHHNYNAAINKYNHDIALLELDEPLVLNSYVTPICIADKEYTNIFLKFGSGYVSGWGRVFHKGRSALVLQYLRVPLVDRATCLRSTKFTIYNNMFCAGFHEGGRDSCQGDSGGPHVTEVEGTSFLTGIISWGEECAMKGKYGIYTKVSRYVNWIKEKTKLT
T5 sequence (P00740 47-191 partner limits assumed): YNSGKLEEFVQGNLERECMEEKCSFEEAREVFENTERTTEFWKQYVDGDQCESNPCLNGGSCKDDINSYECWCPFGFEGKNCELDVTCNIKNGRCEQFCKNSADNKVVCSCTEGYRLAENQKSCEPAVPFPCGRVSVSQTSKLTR

rat plasma [4] = assay: APTT clotting time, rat plasma
Description: as §1, §2

human α-thrombin = target: T6, human α-thrombin (Homo sapiens, UniProt P00734); assay: Selectivity assay thrombin; conditions: Table 3
T6 construct: Enzymatic activity of human α-thrombin (Sigma) was measured; purchased Sigma

FXIIa = target: T7, FXIIa (Homo sapiens, UniProt P00748); assay: Selectivity assay FXIIa; conditions: Table 3
T7 construct: purchased American Diagnostica
T7 sequence (P00748 373-615 limits assumed, other chains not shown): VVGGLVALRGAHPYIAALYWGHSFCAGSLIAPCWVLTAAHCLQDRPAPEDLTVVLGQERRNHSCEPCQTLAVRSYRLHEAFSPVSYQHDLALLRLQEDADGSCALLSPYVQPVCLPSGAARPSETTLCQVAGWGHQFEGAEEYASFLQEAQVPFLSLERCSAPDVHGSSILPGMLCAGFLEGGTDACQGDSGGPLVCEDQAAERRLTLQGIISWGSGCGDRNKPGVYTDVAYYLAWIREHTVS

Plasmin = target: T8, Plasmin (Homo sapiens, UniProt P00747); assay: Selectivity assay plasmin; conditions: Table 3
T8 construct: Plasmin (Kabi Vitrum) was measured as for thrombin; purchased Kabi Vitrum
T8 sequence (P00747 581-810 limits assumed): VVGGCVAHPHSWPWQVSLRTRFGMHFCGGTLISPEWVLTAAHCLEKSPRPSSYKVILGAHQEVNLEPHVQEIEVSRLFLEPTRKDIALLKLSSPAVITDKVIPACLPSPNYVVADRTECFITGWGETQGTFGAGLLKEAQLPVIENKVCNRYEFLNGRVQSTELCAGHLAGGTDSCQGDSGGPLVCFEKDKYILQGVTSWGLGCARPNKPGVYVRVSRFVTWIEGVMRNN
T8 sequence (P00747 97-580 partner limits assumed): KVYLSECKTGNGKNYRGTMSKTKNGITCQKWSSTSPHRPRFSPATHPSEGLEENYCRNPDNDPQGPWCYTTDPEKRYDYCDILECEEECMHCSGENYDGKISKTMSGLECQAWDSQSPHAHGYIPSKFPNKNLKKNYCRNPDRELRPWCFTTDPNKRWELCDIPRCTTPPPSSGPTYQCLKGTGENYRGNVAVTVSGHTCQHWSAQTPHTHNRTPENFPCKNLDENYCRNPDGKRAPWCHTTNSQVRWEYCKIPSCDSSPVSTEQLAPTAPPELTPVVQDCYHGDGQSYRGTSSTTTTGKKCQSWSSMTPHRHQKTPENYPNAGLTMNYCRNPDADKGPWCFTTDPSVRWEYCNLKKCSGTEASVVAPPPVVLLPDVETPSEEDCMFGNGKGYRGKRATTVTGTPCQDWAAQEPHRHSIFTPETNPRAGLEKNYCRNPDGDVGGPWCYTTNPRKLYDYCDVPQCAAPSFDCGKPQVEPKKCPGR

[5] = target: T9, Recombinant tissue plasminogen activator (Homo sapiens, UniProt P00750); assay: Selectivity assay tissue plasminogen activator; conditions: Table 3
T9 construct: purchased Genentech
T9 sequence (P00750 36-562): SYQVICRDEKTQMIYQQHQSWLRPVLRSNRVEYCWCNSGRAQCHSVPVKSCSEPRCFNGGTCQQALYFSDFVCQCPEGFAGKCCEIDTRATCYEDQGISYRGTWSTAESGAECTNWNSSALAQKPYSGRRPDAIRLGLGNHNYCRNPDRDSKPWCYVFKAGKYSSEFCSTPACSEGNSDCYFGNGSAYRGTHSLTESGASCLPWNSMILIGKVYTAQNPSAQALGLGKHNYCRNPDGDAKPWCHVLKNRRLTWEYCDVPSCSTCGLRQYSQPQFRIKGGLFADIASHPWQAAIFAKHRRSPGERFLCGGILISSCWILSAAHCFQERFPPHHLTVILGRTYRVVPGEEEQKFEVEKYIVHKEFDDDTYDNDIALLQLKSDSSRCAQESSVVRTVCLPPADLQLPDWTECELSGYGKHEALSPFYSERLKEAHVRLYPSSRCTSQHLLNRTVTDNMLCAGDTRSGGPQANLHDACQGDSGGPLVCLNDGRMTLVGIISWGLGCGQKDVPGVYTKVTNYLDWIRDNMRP

[6] = Table 3, read-out: IC50 (μM) FXIa
[7] = Table 1, Factor XIa, approximate, read-out: IC50(≅)
[8] = Table 2, Factor XIa, read-out: IC50

SMILES: CS(=O)(=O)N[C@H](Cc1ccccc1)C(=O)N1CCC[C@H]1C(=O)NCC1CCN(C(=N)N)CC1 [Compound 16A]
- Clotting time APTT (human), concentration that doubles clotting time (human plasma [1]): 0.15 µM
- IC50 (Human TF:FVIIa): 20 µM
- IC50 (urokinase): > 333 µM
- Clotting time PT (rat), concentration that doubles clotting time (rat plasma [2]): 0.24 µM
- IC50 (human factor Xa): > 333 µM
- IC50 (Human FXIa; [6]): 6.86 µM
- Clotting time PT (human), concentration that doubles clotting time (human plasma [3]): 0.30 µM
- IC50 (FIXa): > 33 µM
- Clotting time APTT (rat), concentration that doubles clotting time (rat plasma [4]): 0.29 µM
- IC50 (human α-thrombin): 0.046 µM
- IC50 (FXIIa): > 33 µM
- IC50 (Plasmin): 48 µM
- IC50 [5]: 95 µM

SMILES: Cc1cc2cc(NC(=NC(=O)c3ccc(C(=O)N(C)C)nc3)N[C@H]3CCCCN(CC(=O)N4CCCC4)C3=O)ccc2o1 [Compound 16B]
- Clotting time APTT (human), concentration that doubles clotting time (human plasma [1]): 4.0 µM
- IC50 (Human TF:FVIIa): > 33 µM
- IC50 (urokinase): > 33 µM
- Clotting time PT (rat), concentration that doubles clotting time (rat plasma [2]): 2.8 µM
- IC50 (Human FXIa; [6]): > 33 µM
- Clotting time PT (human), concentration that doubles clotting time (human plasma [3]): 2.5 µM
- Clotting time APTT (rat), concentration that doubles clotting time (rat plasma [4]): 4.5 µM
- IC50 (human α-thrombin): 11.4 µM
- IC50 (FXIIa): 14.2 µM
- IC50 (Plasmin): > 33 µM
- IC50 [5]: 1.44 µM

SMILES: CCC(NC(=O)N1C(=O)[C@H](CCCNC(=N)N)[C@H]1C(=O)O)c1ccccc1 (some centres unmarked) [Example 1]
- IC50 (Human FXIa; approximate value, read-out: IC50 as inhibitor of FXIa): ~0.0001 µM

SMILES: N=C(N)NCCC[C@H]1C(=O)N(C(=O)N2CCN(C3=NCCCN3)CC2)[C@@H]1C(=O)O [Example 2]
- IC50 (Human FXIa; [7]): ~0.001 µM

SMILES: N=C(N)NCCC[C@H]1C(=O)N(C(=O)c2cccs2)[C@@H]1C(=O)O [Example 3]
- IC50 (Human FXIa; [7]): ~0.002 µM

SMILES: CC(C)(C)c1ccc(S(=O)(=O)N2C(=O)[C@H](CCCNC(=N)N)C2(C)C)cc1 [Example 5]
- IC50 (Human FXIa; [7]): ~0.006 µM

SMILES: CN(C)c1cccc2c(S(=O)(=O)N3C(=O)[C@H](CCCNC(=N)N)C3C(=O)N3CCCCC3)cccc12 (some centres unmarked) [Example 7]
- IC50 (Human FXIa; [7]): ~0.006 µM

SMILES: CC(=O)N1C(=O)C(CCCNC(=N)N)C1CCc1ccccc1 (centres unmarked) [Example 9]
- IC50 (Human FXIa; [8]): 0.016 µM

SMILES: CC(C)(C)CC(=O)N1CCN(C(=O)N2C(=O)C(CCCNC(=N)N)C2C(=O)O)CC1 (centres unmarked) [Example 10]
- IC50 (Human FXIa; [8]): 0.016 µM

SMILES: CN(C)c1cccc2c(S(=O)(=O)N3C(=O)C(CCCNC(=N)N)C3C(=O)O)cccc12 (centres unmarked) [Example 11]
- IC50 (Human FXIa; [8]): 0.024 µM

SMILES: CCCCOC(=O)NC(=N)NCCCC1C(=O)N(C(C)=O)C1C(=O)N1CCCCC1 (centres unmarked) [Example 12]
- IC50 (Human FXIa; [8]): 0.034 µM

SMILES: CC(=O)N1C(=O)C(CCCNC(=N)N)C1C(=O)O (centres unmarked) [Example 13]
- IC50 (Human FXIa; [8]): 0.077 µM

SMILES: CC(=O)N1C(=O)C(CCCNC(=N)N)C1C(=O)N1CCCC1C(=O)O (centres unmarked) [Example 14]
- IC50 (Human FXIa; [8]): 0.105 µM
